Test results: ChEMBL document CHEMBL4270586, “Novel hydrazido benzenesulfonamides-isatin conjugates: Synthesis, carbonic anhydrase inhibitory activity and molecular modeling studies” (Eur J Med Chem, 2018)

Each compound was assayed against Carbonic anhydrase 9 (Homo sapiens, UniProt Q16790) (assay: Inhibition of recombinant human carbonic anhydrase 9 incubated for 15 mins prior to testing by stopped flow CO2 hydration assay).

SMILES	Ki [nM]
NS(=O)(=O)c1ccc(C(=O)NN=C2C(=O)N(Cc3ccccc3)c3ccccc32)cc1	25.2
Cc1cc(C)c2c(c1)C(=NNC(=O)c1ccc(S(N)(=O)=O)cc1)C(=O)N2	716
NS(=O)(=O)c1ccc(C(=O)NN=C2C(=O)Nc3ccc(F)cc32)cc1	32.3
CCOC(=O)CN1C(=O)C(=NNC(=O)c2ccc(S(N)(=O)=O)cc2)c2ccccc21	17.7
NS(=O)(=O)c1ccc(C(=O)NN=C2C(=O)N(Cc3ccc(F)cc3)c3ccccc32)cc1	148
NS(=O)(=O)c1ccc(C(=O)NN=C2C(=O)Nc3ccc(Br)cc32)cc1	101
NS(=O)(=O)c1ccc(C(=O)NN=C2C(=O)Nc3ccccc32)cc1	174
CCCCN1C(=O)C(=NNC(=O)c2ccc(S(N)(=O)=O)cc2)c2ccccc21	27.4
CCN1C(=O)C(=NNC(=O)c2ccc(S(N)(=O)=O)cc2)c2ccccc21	8.9
Cc1ccc2c(c1)C(=NNC(=O)c1ccc(S(N)(=O)=O)cc1)C(=O)N2	197
C=CCN1C(=O)C(=NNC(=O)c2ccc(S(N)(=O)=O)cc2)c2ccccc21	77.9
CN1C(=O)C(=NNC(=O)c2ccc(S(N)(=O)=O)cc2)c2ccccc21	30.6
CC(C)N1C(=O)C(=NNC(=O)c2ccc(S(N)(=O)=O)cc2)c2ccccc21	177
Cc1ccc(CN2C(=O)C(=NNC(=O)c3ccc(S(N)(=O)=O)cc3)c3ccccc32)cc1	81.2
CCCN1C(=O)C(=NNC(=O)c2ccc(S(N)(=O)=O)cc2)c2ccccc21	30.1
NS(=O)(=O)c1ccc(C(=O)NN=C2C(=O)Nc3ccc(Cl)cc32)cc1	31.5
NS(=O)(=O)c1ccc(C(=O)NN=C2C(=O)Nc3ccc([N+](=O)[O-])cc32)cc1	23.8
COc1ccc2c(c1)C(=NNC(=O)c1ccc(S(N)(=O)=O)cc1)C(=O)N2	264
